Reference: patent publication US20170008841A1, “CRYSTAL FORMS OF ASTAXANTHIN” (DSM IP ASSETS B.V., priority 2008, published 2017)
≈ marks a conversion by molar mass, not a printed value. Like-named read-outs stand apart in the source and are kept apart here.

Legend:
Type in all cases: physicochemical
[1] = Ideal solubility calculated of forms I and II in DCM from melting points and heat of fusion (DSC data)
Description: The ideal solubility can be estimated by using the equation with measured melting points and heat of fusion form DCS data.

[2] = Stability of forms I and II in solid form / solid formulations (UV retention)
Protocol: Two solid formulations of the crystal forms I and II were prepared according to methods mentioned above. The formulations have been analyzed by Raman spectroscopy and—with regard to stability—by UV retention, a commonly used method for stability measurements.
The samples used in this experiment are: • Sample A: crystal form I prepared with methylene chloride • Sample B: crystal form II prepared with chloroform • For both formulations a matrix-composition consisting of a H2O-phase (Ca-Lignosulfonate & Yellow dextrin) and a Oil-phase (CH2Cl2) have been used. • Sample C: As a control commercial product Carophyll Pink 10%-CWS from DSM Nutritional Products Ltd was used. • In this case the following matrix-composition was used: H2O-phase: Ca-Lignosulfonate & Yellow dextrin; Oil-phase: CH2Cl2, & d,l-a-tocopherol, bees wax.)

[3] = Solubility measurements of astaxanthin form I and II in different solvents
Protocol: The solubilities of astaxanthin form I and II in different solvents were compared. Due to the very low solubility in some solvents (Isopropanol and corn oil), experiments in these two solvents were measured by using an UV-VIS meter. The saturated solutions were prepared at different temperature in a double jacked vessel and 1 ml of the solution was taken out and measured by the UV-VIS meter. To calculate the real concentration in these solvents, the calibration was made firstly by building up the correlation between absorbance unit and solution concentration.

[4] = Solvent-mediated transformation, slurry conversion experiments (XRPD of resulting crystals)
Protocol: Solvent-mediated polymorphic transformation is an efficient technique to study the phase stability of different crystal forms in various solvents. […] As transformation rates in different solvents vary from minutes to years, an appropriate solvent should be chosen to either facilitate or retard the transformation.
Currently, the choice of a solvent is still done by trial and error, which is time consuming. In accordance with the present invention, the stability test was carried out by the slurry conversion experiments in six different solvents. Form II (and in one case form I) is suspended as the initial form and the resulting crystals were analyzed by XRPD.

CC1=C(/C=C/C(C)=C/C=C/C(C)=C/C=C/C=C(C)/C=C/C=C(C)/C=C/C2=C(C)C(=O)[C@@H](O)CC2(C)C)C(C)(C)C[C@H](O)C1=O (relative stereo) [form I, all-trans-astaxanthin]
Conc. (ideal solubility calculated) [1]: 0.00 g/mL
stable in solid form [2]: at least 5 months
stable in solid form ([2]; 20° C.-40° C.): at least 90 days
Solubility [3]: 200.0 mg · 100 ml^−1
solubility [3]: 10 to 20 mg/mL (≈ 16.8 to 33.5 mM)
Final form after slurry conversion ([4]; Chloroform, 1 day, 20 ° C.): form II

CC1=C(/C=C/C(C)=C/C=C/C(C)=C/C=C/C=C(C)/C=C/C=C(C)/C=C/C2=C(C)C(=O)[C@@H](O)CC2(C)C)C(C)(C)C[C@H](O)C1=O (relative stereo) [form II, all-trans-astaxanthin]
Conc. (ideal solubility calculated) ([1]; DCM, Cal. T 12.00 ° C.): 0.02 g/mL
Ratio (Conc.) form II to form I (ideal solubility calculated) ([1]; DCM, Cal. T 12.00 ° C.): 3530.79
Conc. (ideal solubility calculated) ([1]; DCM, Cal. T 21.80 ° C.): 0.04 g/mL
Ratio (Conc.) form II to form I (ideal solubility calculated) ([1]; DCM, Cal. T 21.80 ° C.): 1927.23
Conc. (ideal solubility calculated) ([1]; DCM, Cal. T 30.70 ° C.): 0.06 g/mL
Ratio (Conc.) form II to form I (ideal solubility calculated) ([1]; DCM, Cal. T 30.70 ° C.): 1151.20
Conc. (ideal solubility calculated) ([1]; DCM, Cal. T 39.00 ° C.): 0.08 g/mL
Ratio (Conc.) form II to form I (ideal solubility calculated) ([1]; DCM, Cal. T 39.00 ° C.): 731.67
stable in solid form ([2]; 20° C.): at least 90 days
Solubility ([3]; Acetone, 20° C.): 9.0 mg · 100 ml^−1
Solubility ([3]; DCM, 20° C.): 1082.0 mg · 100 ml^−1
Conc. ([3]; DCM, Exp. T 12.00 ° C.): 0.02 g/mL
Ln X ([3]; DCM, Exp. T 12.00 ° C.): −6.19
Ratio (Conc.) form II to form I ([3]; DCM, Exp. T 12.00 ° C.): 1.68
Conc. ([3]; DCM, Exp. T 21.80 ° C.): 0.02 g/mL
Ln X ([3]; DCM, Exp. T 21.80 ° C.): −5.96
Ratio (Conc.) form II to form I ([3]; DCM, Exp. T 21.80 ° C.): 1.83
Conc. ([3]; DCM, Exp. T 30.70 ° C.): 0.04 g/mL
Ln X ([3]; DCM, Exp. T 30.70 ° C.): −5.52
Ratio (Conc.) form II to form I ([3]; DCM, Exp. T 30.70 ° C.): 1.54
Solubility ([3]; EtOAc, 20° C.): 10.0 mg · 100 ml^−1
Solubility ([3]; EtOH, 20° C.): 11.8 mg · 100 ml^−1
Solubility ([3]; IPA, 20° C.): 6.0 mg · 100 ml^−1
solubility in Isopropanol ([3]; Isopropanol, 30° C.): 3.4 mg·100 ml^−1
solubility in acetone ([3]; acetone, 20.5° C.): approximately 8 mg·100 ml^−1
Final form after slurry conversion ([4]; DCM, 1 day, 20 ° C.): form I
Final form after slurry conversion ([4]; EtOAc, 4 days, 40 ° C.): form I
